Test results taken from ChEMBL document CHEMBL5506043, “A β-Carboline Derivate PAD4 Inhibitor Reshapes Neutrophil Phenotype and Improves the Tumor Immune Microenvironment against Triple-Negative Breast Cancer” (J Med Chem, 2024).
Where a name gives a salt, the structure may show the parent alone. Each block holds one molecule with its values, some of them ahead of it. Active and inactive are the calls of the source. The rule behind the calls is not given here.

What was measured:
[1] = target: T1, Protein-arginine deiminase type-3 (Homo sapiens) (UniProt Q9ULW8); test: Inhibition of 6His-tagged recombinant human PAD3 expressed in Escherichia coli BL21-DE3 pLysS cells using N-benzoylated arginine ethyl ester hydrochloride as substrate assessed as ratio of Kinact/Ki preincubated for 30 mins followed by substrate addition and measured after 15 mins by […] assay; conditions: time 45.0 min
T1 sequence (whole entry): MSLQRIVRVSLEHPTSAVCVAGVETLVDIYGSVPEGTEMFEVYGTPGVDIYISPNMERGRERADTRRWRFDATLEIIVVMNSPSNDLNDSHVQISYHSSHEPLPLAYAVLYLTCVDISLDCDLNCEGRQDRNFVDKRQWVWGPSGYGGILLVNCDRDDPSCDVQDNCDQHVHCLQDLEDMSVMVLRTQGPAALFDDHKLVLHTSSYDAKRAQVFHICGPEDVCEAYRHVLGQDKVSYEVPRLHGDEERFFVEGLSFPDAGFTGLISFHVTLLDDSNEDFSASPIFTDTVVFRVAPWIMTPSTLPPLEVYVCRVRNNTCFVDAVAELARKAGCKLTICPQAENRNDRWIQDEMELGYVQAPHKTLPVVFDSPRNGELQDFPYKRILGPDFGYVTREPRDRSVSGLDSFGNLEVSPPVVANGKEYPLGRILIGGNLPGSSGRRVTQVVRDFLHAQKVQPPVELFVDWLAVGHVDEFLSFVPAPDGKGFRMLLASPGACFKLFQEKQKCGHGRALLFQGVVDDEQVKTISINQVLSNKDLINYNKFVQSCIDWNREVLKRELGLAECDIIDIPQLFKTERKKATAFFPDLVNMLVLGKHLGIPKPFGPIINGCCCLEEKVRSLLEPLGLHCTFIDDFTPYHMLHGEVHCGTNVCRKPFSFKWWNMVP

[2] = Toxicity in female BALB/c mouse implanted with mouse orthotopic 4T1-Luc cells assessed as reduction in kidney weight at 10 mg/kg, iv administered via tail vein every 2 days for 9 times for 17 days; type: organism-based; conditions: in vivo, 408 h, time 17 day
[3] = Tmax in male Sprague-Dawley rat at 3.5 mg/kg, iv by LC-MS/MS analysis; type: ADME, organism-based; conditions: in vivo
[4] = target: Protein-arginine deiminase type-4 (Mus musculus) (UniProt Q9Z183); test: Inhibition of PAD4 in BALB/c mouse bone marrow neutrophils assessed as reduction in histone H3 citrullination at 2 uM preincubated for 2 hrs followed by calcium ionophore A23187 addition and measured after 2 hrs by Hoechst 33342/Ly6G staining based laser confocal microscopic analysis; conditions: Neutrophil, time 4.0 hrs
Protein-arginine deiminase type-4 (Mus musculus), sequence (Q9Z183 whole entry): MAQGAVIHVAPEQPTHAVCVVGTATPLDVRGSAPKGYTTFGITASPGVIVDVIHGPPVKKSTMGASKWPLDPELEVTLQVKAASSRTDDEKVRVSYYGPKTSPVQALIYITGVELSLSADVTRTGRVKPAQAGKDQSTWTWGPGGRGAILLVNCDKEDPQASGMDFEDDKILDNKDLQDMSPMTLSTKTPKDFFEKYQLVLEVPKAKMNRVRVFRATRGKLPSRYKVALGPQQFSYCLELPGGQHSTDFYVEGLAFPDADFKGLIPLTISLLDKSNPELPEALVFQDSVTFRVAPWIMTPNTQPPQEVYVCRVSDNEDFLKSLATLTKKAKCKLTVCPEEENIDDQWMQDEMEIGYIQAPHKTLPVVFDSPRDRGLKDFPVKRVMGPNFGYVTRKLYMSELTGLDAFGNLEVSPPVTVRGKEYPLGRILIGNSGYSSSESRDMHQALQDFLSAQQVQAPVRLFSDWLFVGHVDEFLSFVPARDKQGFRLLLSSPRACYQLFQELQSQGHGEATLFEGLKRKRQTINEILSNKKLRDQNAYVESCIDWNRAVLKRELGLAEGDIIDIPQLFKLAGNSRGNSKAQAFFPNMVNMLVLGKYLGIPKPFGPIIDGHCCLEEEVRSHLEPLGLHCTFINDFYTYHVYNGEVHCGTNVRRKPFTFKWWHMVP

[5] = target: Protein-arginine deiminase type-4 (Mus musculus) (UniProt Q9Z183); test: Inhibition of PAD4 in BALB/c mouse bone marrow neutrophils assessed as reduction in neutrophil extracellular traps formation at 2 uM preincubated for 2 hrs followed by calcium ionophore A23187 addition and measured after 2 hrs by Hoechst 33342/Ly6G staining based laser confocal microscopic analysis; type: tissue-based; conditions: time 4.0 hrs
4T1 = test: Antiproliferative activity against mouse 4T1 cells assessed as inhibition of cell growth incubated for 48 hrs by MTT assay; type: functional, cell-based; conditions: 4T1, 48 h
[6] = target: Protein-arginine deiminase type-2 (Homo sapiens, UniProt Q9Y2J8); test: Inhibition of PAD2 (unknown origin) using Nalpha-benzoyl-L-arginine ethyl ester as substrate preincubated for 60 mins followed by substrate addition and measured after 90 mins by colorimetric analysis
Protein-arginine deiminase type-2, sequence (Q9Y2J8 whole entry): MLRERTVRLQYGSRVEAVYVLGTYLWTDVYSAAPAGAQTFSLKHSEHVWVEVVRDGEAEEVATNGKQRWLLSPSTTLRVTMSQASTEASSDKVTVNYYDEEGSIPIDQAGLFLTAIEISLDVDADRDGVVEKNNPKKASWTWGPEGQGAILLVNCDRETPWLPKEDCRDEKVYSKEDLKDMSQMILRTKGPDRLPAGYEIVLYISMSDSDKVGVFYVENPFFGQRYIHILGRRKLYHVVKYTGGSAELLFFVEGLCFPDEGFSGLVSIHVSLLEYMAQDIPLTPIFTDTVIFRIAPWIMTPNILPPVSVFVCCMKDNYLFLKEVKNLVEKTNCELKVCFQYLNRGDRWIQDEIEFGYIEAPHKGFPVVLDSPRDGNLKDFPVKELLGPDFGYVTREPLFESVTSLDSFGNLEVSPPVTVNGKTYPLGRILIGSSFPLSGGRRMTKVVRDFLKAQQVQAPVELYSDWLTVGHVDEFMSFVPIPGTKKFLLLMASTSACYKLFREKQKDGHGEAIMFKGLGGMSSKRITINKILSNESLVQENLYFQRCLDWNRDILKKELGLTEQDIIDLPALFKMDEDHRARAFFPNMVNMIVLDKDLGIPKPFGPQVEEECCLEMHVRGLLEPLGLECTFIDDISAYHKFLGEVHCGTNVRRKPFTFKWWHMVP

[7] = Toxicity in female BALB/c mouse implanted with mouse orthotopic 4T1-Luc cells assessed as reduction in liver weight at 10 mg/kg, iv administered via tail vein every 2 days for 9 times for 17 days; type: organism-based; conditions: in vivo, 408 h, time 17 day
[8] = Terminal half life in male Sprague-Dawley rat at 3.5 mg/kg, iv by LC-MS/MS analysis; type: ADME, organism-based; conditions: in vivo
[9] = Cmax in male Sprague-Dawley rat at 3.5 mg/kg, iv by LC-MS/MS analysis; type: ADME, organism-based; conditions: in vivo
Neutrophil = test: In vivo inhibition of PAD4 in female BALB/c mouse implanted with mouse orthotopic 4T1-Luc cells assessed as inhibition of neutrophil extracellular traps formation in tumor at 10 mg/kg, iv administered via tail vein every 2 days for 9 times for 17 days by immunohistochemical staining based analysis; type: functional, organism-based; conditions: time 17.0 day
[10] = Cytotoxicity against human MCF-10A cells assessed as inhibition of cell growth incubated for 48 hrs by MTT assay; type: toxicity, cell-based
[11] = Antitumor activity against mouse orthotopic 4T1-Luc cells implanted in female BALB/c mouse assessed as tumor growth inhibition at 10 mg/kg, iv administered via tail vein every 2 days for 9 times for 17 days and measured every 2 days relative to control; type: functional; conditions: 408 h, time 17 day, read-out: TGI
Mus musculus = test: In vivo inhibition of PAD4 in female BALB/c mouse implanted with mouse orthotopic 4T1-Luc cells assessed as inhibition of histone H3 citrullination in tumor at 10 mg/kg, iv administered via tail vein every 2 days for 9 times for 17 days by immunohistochemical staining based analysis; type: functional, organism-based; conditions: time 17.0 day
[12] = Toxicity in female BALB/c mouse implanted with mouse orthotopic 4T1-Luc cells assessed as reduction in body weight at 10 mg/kg, iv administered via tail vein every 2 days for 9 times for 17 days and measured every 2 days; type: organism-based; conditions: in vivo, 408 h, time 17 day
[13] = AUC (0 to t) in male Sprague-Dawley rat at 3.5 mg/kg, iv by LC-MS/MS analysis; type: ADME, organism-based; conditions: in vivo
[14] = AUC (0 to infinity) in male Sprague-Dawley rat at 3.5 mg/kg, iv by LC-MS/MS analysis; type: ADME, organism-based; conditions: in vivo
[15] = target: Protein-arginine deiminase type-4 (Homo sapiens, UniProt Q9UM07); test: Inhibition of PAD4 (unknown origin) using Nalpha-benzoyl-L-arginine ethyl ester as substrate preincubated for 60 mins followed by substrate addition and measured after 90 mins by colorimetric analysis
Protein-arginine deiminase type-4, sequence (Q9UM07 whole entry): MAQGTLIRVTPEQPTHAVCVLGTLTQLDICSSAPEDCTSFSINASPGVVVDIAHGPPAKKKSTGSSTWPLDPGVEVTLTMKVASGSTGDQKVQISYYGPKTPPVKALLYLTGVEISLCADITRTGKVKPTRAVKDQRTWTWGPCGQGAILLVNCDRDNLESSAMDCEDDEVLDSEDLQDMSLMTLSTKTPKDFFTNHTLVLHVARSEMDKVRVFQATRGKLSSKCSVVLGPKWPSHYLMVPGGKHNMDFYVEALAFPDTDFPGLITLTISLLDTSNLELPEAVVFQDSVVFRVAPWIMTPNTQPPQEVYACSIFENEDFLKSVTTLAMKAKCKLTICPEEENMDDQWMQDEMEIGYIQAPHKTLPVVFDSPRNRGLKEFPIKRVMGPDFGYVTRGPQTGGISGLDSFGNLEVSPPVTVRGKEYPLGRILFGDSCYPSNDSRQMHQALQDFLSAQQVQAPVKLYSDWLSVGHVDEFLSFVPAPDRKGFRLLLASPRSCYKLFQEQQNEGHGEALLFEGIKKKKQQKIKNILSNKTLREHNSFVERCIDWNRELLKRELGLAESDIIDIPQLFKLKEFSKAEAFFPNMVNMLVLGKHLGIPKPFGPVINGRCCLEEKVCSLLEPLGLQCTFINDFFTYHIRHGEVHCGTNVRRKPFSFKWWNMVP

MDA-MB-468 = test: Antiproliferative activity against human MDA-MB-468 cells assessed as inhibition of cell growth incubated for 48 hrs by MTT assay; type: functional, cell-based; conditions: MDA-MB-468, 48 h
[16] = Toxicity in female BALB/c mouse implanted with mouse orthotopic 4T1-Luc cells assessed as reduction in body weight at 1.16 mg/kg, iv administered via tail vein every 2 days for 9 times for 17 days and measured every 2 days; type: organism-based; conditions: in vivo, 408 h, time 17 day
[17] = Antitumor activity against mouse orthotopic 4T1-Luc cells implanted in female BALB/c mouse assessed as tumor growth inhibition at 1.16 mg/kg, iv administered via tail vein every 2 days for 9 times for 17 days and measured every 2 days relative to control; type: functional; conditions: 408 h, time 17 day, read-out: TGI

- Ratio [1]: 15600 min⁻¹ M⁻¹
SMILES: N=C(CCl)NCCCC1NC(=O)N(Cc2cccc(-c3ccccc3Cl)c2)C1=O (stereo unspecified)

- Tmax [3]: 4.8 min
- inhibition [4]: Active
- inhibition [5]: Active
- IC50 (4T1): 7.34 µM
- IC50 [6]: 5.28 µM
- beta t1/2 [8]: 7.8 min
- Cmax [9]: 251.2 ng/mL
- AUC(0-t) [13]: 14.9 ng·h/mL
- AUC [14]: 17214.17 ng·h/mL
- IC50 [15]: 3.54 µM
- IC50 (MDA-MB-468): 5.16 µM
SMILES: CN(C)c1ccc2cc(C(=O)N[C@@H](CCCNC(=N)CCl)C(=O)NCc3ccccc3)ccc2c1
- Activity [2]: Toxic
- Activity [7]: Toxic
- inhibition (Neutrophil): Active
- IC50 at 48 h [10]: 4.3 µM
- inhibition in vivo at 10 mg/kg [11]: 36.2%
- inhibition (Mus musculus): Active
- Activity [12]: Non-Toxic

SMILES: COc1cccc2c1C(=O)c1c(O)c3c(c(O)c1C2=O)C[C@@](O)(C(=O)CO)C[C@@H]3O[C@H]1C[C@H](N)[C@H](O)[C@H](C)O1 [DOXORUBICIN HYDROCHLORIDE]
- Activity [16]: Non-Toxic
- inhibition in vivo at 1.16 mg/kg [17]: 54.6%
